Measurements as given in patent US20230218563A1, “METHODS FOR TREATING OR PREVENTING CHRONIC KIDNEY DISEASE” (Arthrosi Therapeutics, Inc., priority 2020, published 2023).
“And” between values parts separate entries of the source, which are not always exact repeats. Equal values may be shown once. “Also recorded” adds a separate entry of the source. Read-outs that look alike come from different tables or passages of the source.

Legend:
[1] = 4-week toxicity study in Sprague-Dawley rats; assay type: in vivo
Description: On Day 29, surviving TS animals (all animals in study) were euthanized and subjected to a full gross necropsy, which included a macroscopic examination of the external surface of the body, all orifices, cranial cavity, external surface of the brain, the thoracic, abdominal and pelvic cavities and their viscera, cervical areas, carcass and genitalia. Organs were weighed as soon as possible from all main study animals at the scheduled necropsies. Tissues from Groups 1 and 5 animals at the terminal sacrifice, from animals found dead or moribund-sacrificed, and gross lesions from all animals, were embedded in paraffin, sectioned, stained with hematoxylin and eosin and examined microscopically by a board certified veterinary pathologist.

[2] = In vitro metabolism in human liver microsomes; assay type: in vitro ADME
Description: After pre-warming the mixture at 37° C. for 5 minutes, the reaction was initiated by the addition of 1 mM of NADPH and incubated for 60 minutes at 37° C. in a shaking water bath. The reaction was terminated by the addition of 0.5 mL ice-cold acetonitrile. Time 0 incubation was also performed by adding acetonitrile before the addition of microsomes to the incubation mixture as a reference sample for each species. Following vortex and centrifugation at 15,000 g for 3 minutes at room temperature, resulting supernatant was concentrated under nitrogen flow at 33° C., until approximately 0.5 mL of sample remained. The extract was then transferred to a 1.5-mL centrifuge vial for centrifugation at 15,000 g for 3 minutes. Finally, aliquots of the supernatant were transferred to HPLC vials for HPLC-MS analyses.
MS Analysis: Mass spectral analyses were performed on an Agilent single quadruple mass spectrometer equipped with an Agilent 1100 HPLC system. The mass spectrometer was fitted with an electrospray ionization (ESI) source and operated in a negative scan mode between 400 and 500 amu: […]

[3] = Phase 1 single dose study, plasma pharmacokinetics in healthy adult males; assay type: in vivo, human; settings: for AUC(0-t) / AUC(0-inf) / Tmax / Vd/F / half-life / Cmax: male, human, plasma, po; for Vd/F: read-out: Vz/F
Description: The dose groups included Cohort 1 (15 mg or placebo, fasted, oral suspension), Cohort 2 (50 mg or placebo, fasted, suspension), Cohort 3 (100 mg or placebo, fasted, oral suspension), Cohort 4 (150 mg or placebo, fasted, oral suspension), Cohort 6 (50 mg or placebo, fed, oral suspension), and Cohort 7 (50 mg or placebo, fasted, oral capsule). […] An additional 8 subjects received placebo.
The results are consistent with observation in animal testing and higher exposure of S-enantiomer was attributed to the conversion of the R-enantiomer in vivo.

serum uric acid (sUA) = experiment: Phase 2a cross-over study in adults with gout, serum uric acid; assay type: in vivo, human
[4] = biological target: T1, human URAT1 uptake transporter (Homo sapiens, UniProt Q96S37); experiment: Inhibition of URAT1 mediated uric acid uptake in MDCKII cells stably expressing human URAT1; assay type: cell-based
T1 construct: expressed in transfected cells
T1 sequence (Q96S37 1-553): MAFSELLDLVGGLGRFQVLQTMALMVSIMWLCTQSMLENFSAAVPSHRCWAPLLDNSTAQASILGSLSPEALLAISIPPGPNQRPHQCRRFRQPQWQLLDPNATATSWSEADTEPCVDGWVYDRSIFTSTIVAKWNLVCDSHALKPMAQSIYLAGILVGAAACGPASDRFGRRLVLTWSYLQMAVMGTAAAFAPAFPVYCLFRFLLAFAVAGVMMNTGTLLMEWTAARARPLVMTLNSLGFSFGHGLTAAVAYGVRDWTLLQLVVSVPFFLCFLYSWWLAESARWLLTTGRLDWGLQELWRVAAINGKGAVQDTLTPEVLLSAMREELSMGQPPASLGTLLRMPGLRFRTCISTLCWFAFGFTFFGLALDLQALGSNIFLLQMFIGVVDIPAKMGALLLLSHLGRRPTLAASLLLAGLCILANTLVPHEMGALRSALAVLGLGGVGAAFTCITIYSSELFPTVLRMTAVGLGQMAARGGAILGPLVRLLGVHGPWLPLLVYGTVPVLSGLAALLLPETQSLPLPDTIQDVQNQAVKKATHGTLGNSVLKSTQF
Description: Uptake experiments were performed using MDCKII cells stably expressing the human URAT1 uptake transporter. Cells were cultured at 37±1° C. in an atmosphere of 95:5 air:CO2 and were plated onto standard 96-well tissue culture plates at the cell number described in Table 1.
Radiolabeled probe substrate transport was determined by measuring an aliquot (35 μL) from each well for liquid scintillation counting.

[5] = rats, oral gavage 2, 5, 15 and 50 mg/kg/day, 28 days
[6] = 15 mg single oral, fasted, suspension (C1)
[7] = 50 mg single oral, fasted, IR capsule (C7)
[8] = 50 mg single oral, fasted, suspension (C2)
[9] = 50 mg single oral, fed vs fasted
[10] = 50 mg single oral, fed, suspension (C6)
[11] = 100 mg single oral, fasted, suspension (C3)
[12] = 150 mg single oral, fasted, suspension (C4)
[13] = dose proportionality, 15 to 150 mg fasted
[14] = gout patients (sUA>7 mg/dL), once daily, Compound 1 50 mg, febuxostat 40 mg, allopurinol 300 mg, alone or combined

For `[2H]c1c([2H])c([2H])c2c(C(=O)c3cc(Br)c(O)c(Br)c3)c(C(C)O)oc2c1[2H]` (racemic) [Compound 1, (3,5-dibromo-4-hydroxyphenyl)(2-(1-hydroxyethyl)benzofuran-3-yl-4,5,6,7-d4)methanone], the NOAEL at 28 days ([1]; Sprague-Dawley, rat, in vivo, po) was 50 mg/kg, the “NOAEL, human equivalent” value ([1]; rat, in vivo) was 500 mg and the “dose with kidney weight increase, female” value ([1]; rats, 28 days oral) was 50 mg/kg/day. The “dose with liver weight increase, female” value ([1]; rats, 28 days oral) was ≥ 15 mg/kg/day, the “dose with liver weight increase, male” value ([1]; rats, 28 days oral) was 50 mg/kg/day and the “findings at high or mid-high dose after 4 week recovery period” value ([1]; rats, 28 days oral then 4 week recovery) was “resolved”. The clinical signs [1, 5] was “No abnormal clinical signs”, the “effect on food consumption, body weight” value [1, 5] was “no effect” and the mortality [1, 5] was “No mortality”. The “stability in human microsomes” value ([2]; 60 minutes incubation) was “stable; also recorded: more stable than benzbromarone”, the “Parent, % MS response (parent left)” value ([2]; human liver microsomes 0.5 mg/mL, NADPH, 60 minutes, 37° C.) was 82.5% and the CL/F [3, 6] was 1.02 L/h. For the same molecule, the “Cmax (total)” value [3, 6] was 1060 ng/mL, the CL/F [3, 7] was 1.01 L/h and the “Cmax (total)” value [3, 7] was 3970 ng/mL. The CL/F [3, 8] was 0.906 L/h, the “Cmax (total)” value [3, 8] was 3330 ng/mL and the “change of Cmax in the fed state” value [3, 9] was ~33%. For the same molecule, the “decrease of AUC with food” value [3, 9] was “approximately 13%”, the CL/F [3, 10] was 1.03 L/h and the “Cmax (total)” value [3, 10] was 2210 ng/mL. The “Tmax (median)” value [3, 10] was 8 h and 8.00 h, the CL/F [3, 11] was 1.04 L/h and the “Cmax (total)” value [3, 11] was 5510 ng/mL. For the same molecule, the CL/F [3, 12] was 0.944 L/h, the “Cmax (total)” value [3, 12] was 8330 ng/mL and the “Power model intercept, AUCinf (μg · h/mL)” value [3, 13] was 0.944. The “Power model intercept, Cmax (μg/mL)” value [3, 13] was 0.0966, the AUC(0-t) ([3]; 15 mg, 15 mg single oral, fasted, suspension (C1), read-out: AUC0-24 (total)) was 12100 ng·h/mL and the AUC(0-inf) ([3]; 15 mg, 15 mg single oral, fasted, suspension (C1), read-out: AUCinf (total)) was 15000 ng·h/mL. For the same molecule, the Tmax ([3]; 15 mg, 15 mg single oral, fasted, suspension (C1), read-out: Tmax (median)) was 3.5 h, the Vd/F ([3]; 15 mg, 15 mg single oral, fasted, suspension (C1)) was 14.1 L and the half-life ([3]; 15 mg, 15 mg single oral, fasted, suspension (C1), read-out: t1/2 (converted)) was 9.69 h. For the same molecule, the AUC(0-t) ([3]; 50 mg, 50 mg single oral, fasted, IR capsule (C7), read-out: AUC0-24 (total)) was 41900 ng·h/mL, the AUC(0-inf) ([3]; 50 mg, 50 mg single oral, fasted, IR capsule (C7), read-out: AUCinf (total)) was 51300 ng·h/mL and the Tmax ([3]; 50 mg, 50 mg single oral, fasted, IR capsule (C7), read-out: Tmax (median)) was 1.75 h. The Vd/F ([3]; 50 mg, 50 mg single oral, fasted, IR capsule (C7)) was 14.9 L, the half-life ([3]; 50 mg, 50 mg single oral, fasted, IR capsule (C7), read-out: t1/2 (converted)) was 10.5 h and the AUC(0-t) ([3]; 50 mg, 50 mg single oral, fasted, suspension (C2), read-out: AUC0-24 (total)) was 42600 ng·h/mL. It also gave an AUC(0-inf) ([3]; 50 mg, 50 mg single oral, fasted, suspension (C2), read-out: AUCinf (total)) of 59600 ng·h/mL, a Tmax ([3]; 50 mg, 50 mg single oral, fasted, suspension (C2), read-out: Tmax (median)) of 3 h and a Vd/F ([3]; 50 mg, 50 mg single oral, fasted, suspension (C2)) of 16 L. The half-life ([3]; 50 mg, 50 mg single oral, fasted, suspension (C2), read-out: t1/2 (converted)) was 12.5 h, the AUC(0-inf) ([3]; 50 mg, 50 mg single oral, fasted, read-out: Geometric Least Squares Mean AUCinf, Fasted) was 57400 ng·h/mL and the AUC(0-t) ([3]; 50 mg, 50 mg single oral, fasted, read-out: Geometric Least Squares Mean AUClast, Fasted) was 57100 ng·h/mL. The Cmax ([3]; 50 mg, 50 mg single oral, fasted, read-out: Geometric Least Squares Mean Cmax, Fasted) was 3250 ng/mL, the Cmax ([3]; 50 mg, 50 mg single oral, fed (high-fat, high-calorie meal), read-out: Geometric Least Squares Mean Cmax, Fed) was 2170 ng/mL and the AUC(0-t) ([3]; 50 mg, 50 mg single oral, fed, suspension (C6), read-out: AUC0-24 (total)) was 34000 ng·h/mL. The AUC(0-inf) ([3]; 50 mg, 50 mg single oral, fed, suspension (C6), read-out: AUCinf (total)) was 51200 ng·h/mL, the Tmax ([3]; 50 mg, 50 mg single oral, fed, suspension (C6), read-out: Tmax (median)) was 8 h and the Vd/F ([3]; 50 mg, 50 mg single oral, fed, suspension (C6)) was 16.3 L. It also gave a half-life ([3]; 50 mg, 50 mg single oral, fed, suspension (C6), read-out: t1/2 (converted)) of 11.7 h, an AUC(0-inf) ([3]; 50 mg, 50 mg single oral, fed, read-out: Geometric Least Squares Mean AUCinf, Fed) of 49900 ng·h/mL and an AUC(0-t) ([3]; 50 mg, 50 mg single oral, fed, read-out: Geometric Least Squares Mean AUClast, Fed) of 49600 ng·h/mL. The AUC(0-t) ([3]; 100 mg, 100 mg single oral, fasted, suspension (C3), read-out: AUC0-24 (total)) was 71000 ng·h/mL, the AUC(0-inf) ([3]; 100 mg, 100 mg single oral, fasted, suspension (C3), read-out: AUCinf (total)) was 99700 ng·h/mL and the Tmax ([3]; 100 mg, 100 mg single oral, fasted, suspension (C3), read-out: Tmax (median)) was 4 h. It also gave a Vd/F ([3]; 100 mg, 100 mg single oral, fasted, suspension (C3)) of 18.6 L, a half-life ([3]; 100 mg, 100 mg single oral, fasted, suspension (C3), read-out: t1/2 (converted)) of 12.5 h and an AUC(0-t) ([3]; 150 mg, 150 mg single oral, fasted, suspension (C4), read-out: AUC0-24 (total)) of 114000 ng·h/mL. The AUC(0-inf) ([3]; 150 mg, 150 mg single oral, fasted, suspension (C4), read-out: AUCinf (total)) was 173000 ng·h/mL, the Tmax ([3]; 150 mg, 150 mg single oral, fasted, suspension (C4), read-out: Tmax (median)) was 4 h and the Vd/F ([3]; 150 mg, 150 mg single oral, fasted, suspension (C4)) was 15.5 L. The half-life ([3]; 150 mg, 150 mg single oral, fasted, suspension (C4), read-out: t1/2 (converted)) was 12 h, the Tmax ([3]; single oral dose, fasted conditions, read-out: median Tmax, range over doses) was 3 to 5 h and the half-life ([3]; single oral doses 15 to 150 mg, read-out: average terminal half-life) was 10 to 13 h. For the same molecule, the total plasma clearance ([3]; single oral doses 15 to 150 mg) was “approximately 1.0 L/hr”, the volume of distribution ([3]; single oral doses 15 to 150 mg) was 14 to 18 L and the “patients with sUA levels below 5 mg/dL” value (serum uric acid (sUA); [14]) was 93%. For the same molecule, the “patients with sUA levels below 6 mg/dL” value (serum uric acid (sUA); [14]) was 96%, the “sUA level at 24 hr post-dose in all patients” value (serum uric acid (sUA); gout patients, 7 days dosing, 50 mg) was “below 6 mg/dL” and the “sUA after treatment in mildly renal impaired patients” value (serum uric acid (sUA); gout patients, Compound 1 50 mg once daily, from 8.6±1.1 mg/dL) was 4.5 ± 0.8 mg/dL. For the same molecule, the “mean sUA level reached at maximum” value (serum uric acid (sUA); gout patients, mean baseline 8.9 mg/dL, once daily, Compound 1 50 mg, febuxostat 40 mg, allopurinol 300 mg, alone (Day 7/Day 21) or combined) was 4.2 mg/dL, the “reduction of mean sUA from baseline” value (serum uric acid (sUA); gout patients, once daily, Compound 1 50 mg, febuxostat 40 mg, allopurinol 300 mg, alone (Day 7/Day 21) or combined) was 53% and the “sUA % change from baseline” value (serum uric acid (sUA); one subject with albuminuria, sequential 7-day periods: Compound 1 50 mg (Day 7), Compound 1 50 mg/allopurinol 300 mg (Day 14), allopurinol 300 mg (Day 21)) was −50.9%. For the same molecule, the “in vitro URAT1 potency compared with benzbromarone” value [4] was “better in vitro URAT1 potency than benzbromarone”.
